Assays:
[1] = cited from earlier work
healthy male subjects = assay: Phase 1 open-label study of 75 mg qd macitentan with and without up-titration: safety; type: in vivo, human
Method: This is a single-sequence, open-label, single-center, Phase 1 study in healthy male subjects. The study assessed the effect of 75 mg qd administration of macitentan. The study includes a screening phase of 21 days before the first macitentan administration, followed by an open-label treatment phase. Randomization was not used and subjects received the same treatment.
• 29 subjects were enrolled.
Administration of 75 mg qd macitentan started on Day 1. Macitentan was administered every day in the morning between 8:00 and 11:00 with 240 mL of noncarbonated water. One 75-mg macitentan film-coated tablet was thus administered as multiple qd oral doses under fed conditions.
Subjects were planned to take macitentan 75 mg for 15 days. However the study was interrupted on the morning of day 8, i.e. when subjects had received 7 doses of macitentan 75 mg.
Macitentan was administered in an up-titration regimen in the morning between 8:00 and 11:00 with 240 mL of noncarbonated water. One macitentan film-coated tablet (10 mg, 37.5 mg or 75 mg) was administered as multiple qd oral doses under fed conditions on Days 1-9 and Days 11-12, and under fasted conditions on Days 10 and 13. The up-titration regimen consists of 2 qd doses of 10 mg macitentan and 3 qd doses of 37.5 mg macitentan followed by 8 qd doses of 75 mg macitentan. On Days −4, −3, 10 and 13 (i.e., the days when dosing occurred under fasted conditions), no fluid intake apart from the water taken at the time of macitentan administration was allowed from 1 hour before until 1 hour after administration of macitentan.
All reported AEs with onset during the treatment phase were included in the analysis. The effects on cardiovascular variables were evaluated and the following variables were collected: PR (ms), QRS (ms), QT (ms), QTcB (ms), QTcF (ms), heart rate (bpm), and RR. The normal range for vital signs is defined as follows: • Systolic blood pressure: 100-140 mmHg • Diastolic blood pressure: 60-90 mmHg • Pulse rate: 45-90 bpm • Respiratory rate: 8-20 per minute • Body temperature: 35.0° C. to 37.5° C.
An AE is any untoward medical occurrence, i.e., any unfavorable and unintended sign (including an abnormal finding), symptom, or disease temporally associated with the use of macitentan. A treatment-emergent AE is any occurrence that is new in onset or aggravated in severity from the baseline condition. The following are used to assess all AEs: • Related: There is a reasonable causal relationship between macitentan administration and the AE. • Not Related: There is not a reasonable causal relationship between macitentan administration and the AE.
An assessment of AE severity grade was made using the following general categorical descriptors: • Mild: Awareness of symptoms that are easily tolerated, causing minimal discomfort and not interfering with everyday activities. • Moderate: Sufficient discomfort is present to cause interference with normal activity. • Severe: Extreme distress, causing significant impairment of functioning or incapacitation. Prevents normal everyday activities.

[2] = tested on: patients with PH post-LVAD implantation; assay: Phase 2 study in PH post-LVAD implantation: change in WHO functional class; type: in vivo, human
Method: This is a double-blind, placebo-controlled, multicenter, parallel-group Phase 2 study assessing the efficacy and safety of macitentan in PH post-LVAD implantation. Approximately 57 adult patients with PH post-LVAD implantation were randomized (1:1) to receive either macitentan 10 mg, or matching placebo, once daily orally.
Change from Baseline to Week 12 in WHO FC. See, Table 10.
WHO FC is summarized by time point and treatment group using frequency tables. Changes from Baseline in WHO FC are dichotomized as worsening (i.e., change >0) versus no change or improvement (i.e., change≤0). Worsening is analyzed using a logistic regression model with covariates for treatment group and WHO FC.

[3] = 75 mg qd, no titration, 6 subjects
[4] = FAS, N = 25, baseline to Week 12

For `CCCNS(=O)(=O)Nc1ncnc(OCCOc2ncc(Br)cn2)c1-c1ccc(Br)cc1` [Macitentan, propylsulfamic acid [5-(4-bromo-phenyl)-6-[2-(5-bromo-pyrimidin-2-yloxy)-ethoxy]-pyrimidin-4-yl]-amide], the “Flushing/feeling of warmth/redness of face and/or hands, Frequency observed with macitentan 10 mg” value [1] is given as “Uncommon”, the “Headache, Frequency observed with macitentan 10 mg” value [1] is given as “Very” and the “Photophobia, Frequency observed with macitentan 10 mg” value [1] is given as “Not known”. For the same molecule, the “Sinusitis/rhinitis/nasal congestion, Frequency observed with macitentan 10 mg” value [1] was “Common”, the reduction in hemoglobin (healthy male subjects; 75 mg qd) was at most 2 g/dL and the “vital signs, ECG and lab parameters” value (healthy male subjects; 75 mg qd) was “no clinically significant changes”. The “severity of AEs overall” value (healthy male subjects; 75 mg qd, AEs reported from Day 2 onwards) was “mainly mild”, the “Photophobia, Severity of AEs (No titration)” value (healthy male subjects; [3]) was “All mild” and the “Sinusitis/rhinitis/nasal congestion, Severity of AEs (No titration)” value (healthy male subjects; [3]) was “All mild”. The “tolerability with up-titration regimen” value (healthy male subjects; 75 mg, up-titration vs no up-titration) was “improved tolerability”, the “resolution of AEs” value (healthy male subjects; four days after stopping macitentan) was “most of the AEs resolved” and the “Sinusitis/rhinitis/nasal congestion, Severity of AEs (With titration)” value (healthy male subjects; up-titration 10 mg, 37.5 mg, 75 mg qd, 6 subjects) was “Mild, less”. For the same molecule, the completion of treatment (healthy male subjects; up-titration regimen cohort) was “All subjects completed treatment”, the “WHO FC Improvement (change < 0), number of patients” value [2, 4] was 10 and the “WHO FC Improvement (change < 0), percent of patients” value [2, 4] was 40.0%. The “WHO FC No change (change = 0), number of patients” value [2, 4] was 13, the “WHO FC No change (change = 0), percent of patients” value [2, 4] was 52.0% and the “WHO FC Worsening (change > 0), number of patients” value [2, 4] was 2. The “WHO FC Worsening (change > 0), percent of patients” value [2, 4] was 8.0% and the “Change in WHO FC, Odds Ratio Macitentan relative to Placebo (95% Confidence Interval)” value ([2]; ordered logistic regression adjusting for baseline, higher OR = better change) was 1.333 (0.417, 4.255).

From US20240299384A1, “METHODS FOR TREATING PULMONARY HYPERTENSION IN PATIENTS WITH LEFT VENTRICULAR ASSIST DEVICE IMPLANTATION” (ACTELION PHARMACEUTICALS LTD, priority 2021, published 2024)
